From article PMC6162201, “Towards a comprehensive understanding of the structural dynamics of a bacterial diterpene synthase during catalysis” (Nature Communications, 2018)

Target: T1, CotB2 (CotB2^wt) (Streptomyces melanosporofaciens, UniProt C9K1X5)
T1 construct: C-terminal His6 tag, pET-24a, expressed in E. coli Rosetta2 (DE3)
T1 sequence (C9K1X5 1-307): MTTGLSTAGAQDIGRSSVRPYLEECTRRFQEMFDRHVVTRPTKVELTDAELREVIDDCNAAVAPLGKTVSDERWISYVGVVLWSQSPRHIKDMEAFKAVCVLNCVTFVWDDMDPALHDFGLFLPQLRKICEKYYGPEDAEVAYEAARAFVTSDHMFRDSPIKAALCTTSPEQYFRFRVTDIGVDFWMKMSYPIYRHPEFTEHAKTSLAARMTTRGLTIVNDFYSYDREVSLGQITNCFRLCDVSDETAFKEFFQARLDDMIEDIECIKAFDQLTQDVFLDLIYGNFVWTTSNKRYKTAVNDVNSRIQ
Type: binding
Details: Mg2+ (three ions), pH 8.5; active site, diphosphate mimic, closed state

Compound: NCCCC(O)(P(=O)(O)O)P(=O)(O)O [AHD, (4-amino-1-hydroxy-1-phosphonobutyl)phosphonate]
- X-ray crystal structure, co-crystallisation: we crystallised CotB2 with (4-amino-1-hydroxy-1-phosphonobutyl)phosphonate (alendronate (AHD)
